Source: patent US6790470B1, “Aspartame derivative crystal and process for producing the same” (Ajinomoto Co., Inc., priority 1998, dated 2004)

Columns and labels:
[1] = Inherent dissolution rate of tabletted dried crystals in ion exchanged water (Test Example 1); format: physicochemical; conditions: for amount of crystals dissolved: 300 mg tablet, 300 ml ion exchanged water, 20° C., 200 rpm
Description: Measurement of the Dissolution Rate for the Dried Crystals The dissolution rates of the A-type crystals (Reference Example 2(b)) and the C-type crystals (Example 1) were determined in the following method. That is, 300 mg each of the crystals were introduced into a tabletting mortar (tablet machine) with an internal diameter of 8 mm and a depth of 12 mm, and tabletted at 300 kg/cm2G with “High Pressure Jack J-1 type” (manufactured by Iuchi Seieido) to prepare a sample for measurement of dissolution rate. For measurement of the dissolution rate, the tabletting mortar with only the tabletting face exposed was introduced into 300 ml ion exchanged water kept at 20° C. at a stirring in the number of revolution of 200 rpm, and the inherent dissolution rate was determined using “DISSOLUTION TESTER” (NTR-6100) (manufactured by Toyama Sangyo K. K.).

[2] = Dissolution time, Japanese Pharmacopoeia Paddle method (Test Example 2); format: physicochemical; conditions: 0.5 g sample in 900 ml water (20° C.), 100 rpm, end point visually confirmed
Description: Measurement of the Dissolution Rates of the C-type Crystals (Original Powder) and Granules Thereof 0.5 g of the sample was introduced into 900 ml water (20° C.) in a 1-L elution tester (the Japanese Pharmacopoeia, Paddle method, 100 rpm) and its dissolution time was measured (end point was visually confirmed). That is, the C-type crystals (original powder with an average particle size of about 50 μm) obtained in Example 1 above and the granules (particle size of 100 to 500 μm and 500 to 1,400 μm) of C-type crystals obtained in Example 2 above were examined for measurements of their dissolution times in the same manner as described above.

[3] = weight ratio, cited from earlier work

Compound	amount of crystals dissolved ([1]; 30 minutes) [mg]	amount of crystals dissolved ([1]; 60 minutes) [mg]	amount of crystals dissolved ([1]; 120 minutes) [mg]	dissolution rate as compared with the A-type crystals ([1]; comparison with A-type crystals)	dissolution time [2] [min]	efficacy of sweetness relative to Aspartame ([3]; versus Aspartame)	efficacy of sweetness relative to sucrose ([3]; versus sucrose (table sugar))
COC(=O)[C@H](Cc1ccccc1)NC(=O)[C@H](CC(=O)O)NCCC(C)(C)C [A-type crystals, N-[N-(3,3-dimethylbutyl)-L-α-aspartyl]-L-phenylalanine methyl ester, reference compound]	17	34	69				
COC(=O)[C@H](Cc1ccccc1)NC(=O)[C@H](CC(=O)O)NCCC(C)(C)C [C-type crystals, N-[N-(3,3-dimethylbutyl)-L-α-aspartyl]-L-phenylalanine methyl ester]	25	42	86	significantly improved dissolution rate	55		
COC(=O)[C@H](Cc1ccccc1)NC(=O)[C@H](CC(=O)O)NCCC(C)(C)C [N-(3,3-dimethylbutyl)-APM, N-[N-(3,3-dimethylbutyl)-L-α-aspartyl]-L-phenylalanine methyl ester]						at least 50 times	about 10,000 times
